# Measurements reported in patent US20240376085A1 (Janssen Pharmaceutica NV, priority 2021, published 2024).
# What was measured:
# IL-17A : IL-17RA binding [1] = molecular target: T1, IL-17A : IL-17RA binding (Homo sapiens, UniProt Q16552, K93Q); experiment: IL-17A(FLAG-tagged):IL-17RA(His-tagged) binding disruption Eu-HTRF assay, Protocol 2; details: FLAG-IL-17A 1 nM at 2x final concentration; average if tested more than once
# T1 construct: Name: IL-17A-Flag
# From the text: An antibody directed against the FLAG tag of IL-17A (SEQ ID NO: 1) is labeled with the HTRF donor chromophore (Europium-cryptate). IL-17A is present as a dimer that is “locked into” this quaternary structure due to the formation of loop-spanning […] disulfide bridges. The construct of IL-17RA used in the assay excludes the […] portion of the receptor and is fused to a C-terminal 10×His tag (SEQ ID NO:2). An antibody directed against the His tag of the IL-17RA chimera is labeled with the HTRF acceptor chromophore (“D2”). The fluorescence-resonance energy transfer (FRET) depends on the vicinity of the donor chromophore to the acceptor, and interruption of the binding between the IL-17A and IL-17RA causes the reduction/loss of FRET. Therefore, this assay allows to evaluate the compound effect on the binding IL-17A and IL-17RA by monitoring the fluorescence intensity of donor vs acceptor. The assay was run using either Protocol 1 or Protocol 2 as described below.
# Protocol 2. 40 nl of 2-fold serial diluted compound solution for total 22 dilution points is added into each well of a 1536-well, white, low-volume, non-binding plate (Greiner #782904), then 2 μl of FLAG tagged IL-17A at 2× final concentration (1 nM) in solution of PBS+0.01% Triton-X100 is added to each well. The assay plate is briefly centrifuged then incubated for 1 h at rt. A mixed solution is prepared containing 2×5 nM 10HIS×IL-17RA, 2×2.5 nM Eu-anti-FLAG (CISBIO), 2×5 nM D2-anti-HIS (CISBIO) in PBS+0.01% Triton-X100+200 mM Potassium Fluoride (Sigma 60238) and 2 μl of mix is added to each well of the assay plate. The plate is briefly centrifuged then incubated for 2 h at rt. The HTRF intensities at the wavelength of donor (615 nm) and acceptor (665 nm) are measured using BMG Pherastar. The ratio between intensities at two wavelengths is calculated and plotted against the compound concentration and the data is fitted to a one-site competition model to yield IC50 of the compound.
# IL-17A : IL-17RA binding [2] = molecular target: T1, IL-17A : IL-17RA binding; experiment: IL-17A(FLAG-tagged):IL-17RA(His-tagged) binding disruption Eu-HTRF assay, Protocol 1; details: FLAG-IL-17A 2.5 nM at 2x final concentration; average if tested more than once
# Outline: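 IC50 came from a one-site competition fit of the acceptor/donor (665/620 nm) HTRF ratio. His-tagged IL-17RA, Eu-anti-FLAG and D2-anti-His were added after a 1 h rt compound preincubation with FLAG-tagged IL-17A dimer in PBS/0.01% Triton X-100, followed by 2 h at rt before reading.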
# [3] = test system: IL-17A-induced G-CSF production in human normal keratinocyte (NHK); experiment: NHK assay: IL-17A-induced G-CSF production in normal human keratinocytes; format: cell-based; details: 24 h, IL-17A 5 ng/mL, average if tested more than once
# Outline: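 Stimulus rhIL-17A 5 ng/mL final, premixed 1 h rt with compound; adult NHK, 5% FBS, 0.2% DMSO. Viability by CellTiter-Glo vs DMSO.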
# T1 sequence (Q16552 with tags, fused parts or gaps K93Q): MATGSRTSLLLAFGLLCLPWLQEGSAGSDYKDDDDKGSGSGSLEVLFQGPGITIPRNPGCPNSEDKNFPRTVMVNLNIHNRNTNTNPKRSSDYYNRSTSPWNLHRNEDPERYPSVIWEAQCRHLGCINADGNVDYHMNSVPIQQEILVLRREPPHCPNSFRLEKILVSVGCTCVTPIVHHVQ
Compound,IC50 (IL-17A : IL-17RA binding [1]) [nM],IC50 (IL-17A : IL-17RA binding [2]) [nM],"IC50 ([3]; Homo sapiens, Keratinocyte) [nM]",IC50 [3] [nM]
"Cc1nonc1C(=O)N[C@@H](CO[C@@H](C)C(F)(F)F)c1nc2ccc([C@H](NC(=O)CC3CC(F)(F)C3)C3CC3)cc2[nH]1 (relative stereo) [Example 151, N—((R*)-1-(6-((R)-Cyclopropyl(2-(3,3-difluorocyclobutyl)acetamido)methyl)-1H-benzo[d]imidazol-2-yl)-2-(((S*)-1,1,1-trifluoropropan-2-yl)oxy)ethyl)-4-methyl-1,2,5-oxadiazole-3-carboxamide]",50 to 100,< 50,> 100,
"COC[C@H](NC(=O)CC1CC(F)(F)C1)c1ccc2nc([C@H](COC(C)(C)C(F)(F)F)NC(=O)c3nonc3C3CC3)[nH]c2c1 (relative stereo) [Example 164, 4-Cyclopropyl-N—((R)-1-(5-((R*)-1-(2-(3,3-difluorocyclobutyl)acetamido)-2-methoxyethyl)-1H-benzo[d]imidazol-2-yl)-2-((1,1,1-trifluoro-2-methylpropan-2-yl)oxy)ethyl)-1,2,5-oxadiazole-3-carboxamide]",< 50,< 50,< 50,
"Cc1nonc1C(=O)N[C@H](c1nc2cc([C@@H](C)NC(=O)CCC(F)(F)F)ccc2[nH]1)[C@@H]1CCCC(F)(F)C1 [Example 264, N—((S)—((R)-3,3-Difluorocyclohexyl)(5-((R)-1-(4,4,4-trifluorobutanamido)ethyl)-1H-benzo[d]imidazol-2-yl)methyl)-4-methyl-1,2,5-oxadiazole-3-carboxamide]",,< 50,> 100,
C[C@@H](NC(=O)CCC(F)(F)F)c1ccc2[nH]c([C@@H](NC(=O)c3cnn(CCC(F)(F)F)n3)[C@@H]3CCCC(F)(F)C3)nc2c1 [Example 265],,> 100,> 100,
"O=C(CC1CC(F)(F)C1)N[C@@H](c1ccc2[nH]c([C@@H](NC(=O)c3nonc3C3CC3)[C@H]3[C@@H]4CC(F)(F)C[C@@H]43)nc2c1)C1CC1 [Example 266, 4-Cyclopropyl-N—((S)-(5-((R)-cyclopropyl(2-(3,3-difluorocyclobutyl)acetamido)methyl)-1H-benzo[d]imidazol-2-yl)((1R,5S,6r)-3,3-difluorobicyclo[3.1.0]hexan-6-yl)methyl)-1,2,5-oxadiazole-3-carboxamide]",,< 50,< 50,
"CC(C)(OC[C@H](NC(=O)c1nonc1OCC(F)(F)F)c1nc2cc([C@H](NC(=O)CC3CC(F)(F)C3)C3CC3)ccc2[nH]1)C(F)(F)F [Example 267, N—((R)-1-(5-((R)-Cyclopropyl(2-(3,3-difluorocyclobutyl)acetamido)methyl)-1H-benzo[d]imidazol-2-yl)-2-((1,1,1-trifluoro-2-methylpropan-2-yl)oxy)ethyl)-4-(2,2,2-trifluoroethoxy)-1,2,5-oxadiazole-3-carboxamide]",,< 50,< 50,
"CC(C)(OC[C@H](NC(=O)c1nocc1C1CC1)c1nc2cc([C@H](NC(=O)CC3CC(F)(F)C3)C3CC3)ccc2[nH]1)C(F)(F)F [Example 268, 4-Cyclopropyl-N—((R)-1-(5-((R)-cyclopropyl(2-(3,3-difluorocyclobutyl)acetamido)methyl)-1H-benzo[d]imidazol-2-yl)-2-((1,1,1-trifluoro-2-methylpropan-2-yl)oxy)ethyl)isoxazole-3-carboxamide]",,< 50,50 to 100,
"C[C@@H](O[C@H](C)C(F)(F)F)[C@H](NC(=O)c1nonc1C1CC1)c1nc2ccc([C@H](NC(=O)C[C@H]3CC3(F)F)C3(C#N)CC3)cc2[nH]1 [Example 269, N-((1R,2R)-1-(6-((S)-(1-Cyanocyclopropyl)(2-((S)-2,2-difluorocyclopropyl)acetamido)methyl)-1H-benzo[d]imidazol-2-yl)-2-(((R)-1,1,1-trifluoropropan-2-yl)oxy)propyl)-4-cyclopropyl-1,2,5-oxadiazole-3-carboxamide]",,< 50,< 50,
"Cc1nonc1C(=O)N[C@H](c1nc2cc([C@@H](COC3CC3)NC(=O)C[C@H]3CC3(F)F)ccc2[nH]1)[C@@H](C)OC(C)(C)C(F)(F)F [Example 270, N-((1R,2R)-1-(5-((S)-2-Cyclopropoxy-1-(2-((S)-2,2-difluorocyclopropyl)acetamido)ethyl)-1H-benzo[d]imidazol-2-yl)-2-((1,1,1-trifluoro-2-methylpropan-2-yl)oxy)propyl)-4-methyl-1,2,5-oxadiazole-3-carboxamide]",50 to 100,,50 to 100,
"Cc1nonc1C(=O)N[C@H](c1nc2cc([C@@H](COC3CC3)NC(=O)CC3CC(F)(F)C3)ccc2[nH]1)[C@@H](C)OC(C)(C)C(F)(F)F [Example 271, N-((1R,2R)-1-(5-((S)-2-Cyclopropoxy-1-(2-(3,3-difluorocyclobutyl)acetamido)ethyl)-1H-benzo[d]imidazol-2-yl)-2-((1,1,1-trifluoro-2-methylpropan-2-yl)oxy)propyl)-4-methyl-1,2,5-oxadiazole-3-carboxamide]",50 to 100,,< 50,
"Cc1nonc1C(=O)N[C@H](c1nc2cc([C@@H](COC3CC3)NC(=O)CC3CC(F)(F)C3)ccc2[nH]1)[C@@H](C)O[C@@H](C)C(F)(F)F [Example 272, N-((1R,2R)-1-(5-((S)-2-Cyclopropoxy-1-(2-(3,3-difluorocyclobutyl)acetamido)ethyl)-1H-benzo[d]imidazol-2-yl)-2-(((S)-1,1,1-trifluoropropan-2-yl)oxy)propyl)-4-methyl-1,2,5-oxadiazole-3-carboxamide]",> 100,,< 50,
"CC(C)n1nccc1C(=O)N[C@H](c1nc2cc([C@@H](COC3CC3)NC(=O)CC3CC(F)(F)C3)ccc2[nH]1)[C@@H](C)O[C@@H](C)C(F)(F)F [Example 273, N-((1R,2R)-1-(5-((S)-2-Cyclopropoxy-1-(2-(3,3-difluorocyclobutyl)acetamido)ethyl)-1H-benzo[d]imidazol-2-yl)-2-(((S)-1,1,1-trifluoropropan-2-yl)oxy)propyl)-1-isopropyl-1H-pyrazole-5-carboxamide]",> 100,,< 50,
"Cc1nonc1C(=O)N[C@H](c1nc2cc([C@@H](COC3CC3)NC(=O)CC3CC(F)(F)C3)ccc2[nH]1)[C@@H](C)O[C@@H](C)C(F)(F)F [Example 274, N-((1R,2R)-1-(5-((S)-2-Cyclopropoxy-1-(2-(3,3-difluorocyclobutyl)acetamido)ethyl)-1H-benzo[d]imidazol-2-yl)-2-(((S)-1,1,1-trifluoropropan-2-yl)oxy)propyl)-4-methyl-1,2,5-oxadiazole-3-carboxamide]",50 to 100,,,50 to 100
"Cc1nonc1C(=O)N[C@H](c1nc2cc([C@@H](COC3CC3)NC(=O)C[C@H]3CC3(F)F)ccc2[nH]1)[C@@H](C)O[C@H](C)C(F)(F)F [Example 275, N-((1R,2R)-1-(5-((S)-2-Cyclopropoxy-1-(2-((S)-2,2-difluorocyclopropyl)acetamido)ethyl)-1H-benzo[d]imidazol-2-yl)-2-(((R)-1,1,1-trifluoropropan-2-yl)oxy)propyl)-4-methyl-1,2,5-oxadiazole-3-carboxamide]",50 to 100,,50 to 100,
"C[C@@H](OC1CC1)[C@H](NC(=O)c1nonc1C1CC1)c1nc2cc([C@@H](COC3CC3)NC(=O)CC3CC(F)(F)C3)ccc2[nH]1 [Example 276, N-((1R,2R)-2-Cyclopropoxy-1-(5-((S)-2-cyclopropoxy-1-(2-(3,3-difluorocyclobutyl)acetamido)ethyl)-1H-benzo[d]imidazol-2-yl)propyl)-4-cyclopropyl-1,2,5-oxadiazole-3-carboxamide]",50 to 100,,< 50,
